Assay results from patent publication US5633230A, “Treatment of cytomegalovirus infection” (priority 1994, dated 1997).

Key:
[1] = system: CMV strain Towne; assay type: cell-based, human CMV; conditions: HFF, plaque reduction, without 24 h drug pretreatment
Method: The following procedures were then used to determine inhibitory effects of AV-9 on the replication of CMV. […] This was accomplished by diluting the stock peptide solution in growth medium (10% fetal bovine serum and 10 μg/ml gentamicin in Dulbecco's MEM (DMEM)) used to overlay the monolayers.
[…] Virus was then allowed to adsorb for 1 hour at 37° C. The virus inoculum was removed and the monolayers were overlayed with DMEM containing 2% FBS, 10 ug/ml gentamicin and a specified concentration of AV-9. Virus was next allowed to replicate for 7 to 10 days until the plaques were judged to be well developed, and then the monolayers were fixed and stained with a solution of 1% crystal violet in 1% formaldehyde,70% ethanol. Finally, plaques (each representing a single viable virion) were counted and checked microscopically.
In a like manner, plaque reduction assays were also performed against other CMV strains and another CMV host, with comparison against ganciclovir (GCV) and foscarnet (FCV).

[2] = blood levels after single subcutaneous injection of labelled compound; assay type: in vivo; conditions: mice
Method: Blood levels in mice resulting from single subcutaneous injection of a 53 μg dose of the labelled compound were also evaluated. […] Peak levels were maintained for about 20 minutes. At 40 minutes and 2 hours, blood levels had declined to about 80% of peak values. […] Evidently, the compound AV-9 reaches the bloodstream rapidly.

[3] = system: Smith strain of murine CMV; assay: murine CMV infection in cyclophosphamide-immunosuppressed mice; assay type: in vivo, BALB/c mice; conditions: for Surv/Total / Mean Day to Death ± S.D.: infected mice
Text: This immunosuppression model mimics the human patient situation, wherein the HCMV-induced disease in immunosuppressed individuals can often be fatal. The particular model used for evaluating potential antiviral activity has been described by Smee et al in J. Infect. Dis., 1991, 164: 958.
The Smith strain of murine CMV, obtained originally from the American Type Culture Collection (Rockville, Md.) was used. A mouse salivary gland preparation was used for the virus pool. An inoculation of 2×10^4 plaque forming units of the virus was used in the antiviral study. Female BALB/c mice weighing 10-12 g were quarantined 24 hr prior to use, and maintained on Wayne Lab Blox and tap water ad libitum the duration of the study.
Ganciclovir (DHPG) was purchased from a commercial source, and cyclophosphamide was purchased from Sigma Chemical Co. (St. Louis, Mo.).
To determine tissue virus titre, homogenates of infected mouse organs were titrated for virus using C127/I cells in 96-well microplates. Each tissue sample was homogenized and titrated separately with 3 micro wells used per dilution; plates were read by microscopic examination for viral-induced cytopathic effect, with 50% end points determined by the Reed-Muench method. Mean viral titers were expressed at 50% cell culture infectious doses (CCID50)/gram of tissue.
For statistical evaluation, increases in mean day to death and reductions in viral titers were assessed using the two-tailed Mann-Whitney U test. Total survivor increases were evaluated by chi square analysis with Yates'.

[4] = toxicity control mice, immunosuppressed, uninfected; conditions: for Mean Body Weight Change: start of treatment to 24 hr after final treatment; for Surv/Total: toxicity controls
Method: The mice were immunosuppressed by intraperitoneal (i.p.) injection with 100 mg/kg/day of cyclophosphamide administered on days -1, +3, +6, +10, +14 and +18 relative to virus inoculation. […] In a second portion of the study, the compound was administered i.p. in a dose of 0.1 mg/kg/day once daily from day -2 through +10. Ganciclovir in a dose of 50 mg/kg/day was injected i.p. once daily for 10 days beginning 24 hr post-virus exposure (days +1→+10). A total of 15 infected mice/dose were used. […] Five toxicity control mice were used at each dose; these mice were treated in parallel with the infected mice, and were weighed on the initial day of treatment and again 24 after the final treatment. […] Normal controls were weighed and held in parallel with the toxicity controls.

[5] = single s.c. injection, 53 μg labelled compound
[6] = 0.2 mg/kg/day i.p. every other day, day 9
[7] = 0.2 mg/kg/day i.p. every other day, 9 days after virus challenge
[8] = 0.07 mg/kg/day i.p., days -2,0,+2,+4,+6,+8,+10
[9] = 0.1 mg/kg/day i.p., daily days -2 through +10
[10] = 0.2 mg/kg/day i.p., days -2,0,+2,+4,+6,+8,+10
[11] = 0.7 mg/kg/day i.p., days -2,0,+2,+4,+6,+8,+10
[12] = 2.0 mg/kg/day i.p., days -2,0,+2,+4,+6,+8,+10

CC(=O)N[C@H](CCCNC(=N)N)C(=O)N[C@H](CCCNC(=N)N)C(=O)N[C@H](CCCNC(=N)N)C(=O)N[C@H](CCCNC(=N)N)C(=O)N[C@H](CCCNC(=N)N)C(=O)N[C@H](CCCNC(=N)N)C(=O)N[C@H](CCCNC(=N)N)C(=O)N[C@H](CCCNC(=N)N)C(=O)N[C@H](CCCNC(=N)N)C(N)=O [AV-9, acetyl-[D-Arg]9 -NH2]
IC50 [1]: 8.7 µM
blood level relative to peak values ([2]; at 40 minutes and 2 hours, single s.c. 53 μg): about 80%
blood level relative to peak ([2]; at 4 hour, single s.c. 53 μg): about 10%
blood level ([2]; at 8 hours and 24 hours, single s.c. 53 μg): threshold of detection
time near peak blood levels are maintained ([2]; single s.c. 53 μg, summary statement): 20 to 120 min
near-peak blood level [2, 5]: around 1 μg/ml
time peak blood levels were maintained [2, 5]: about 20 minutes
time to near-peak blood levels following injection [2, 5]: 5 min
animals without detectable virus in lungs [3, 6]: one had no detectable virus
animals without detectable virus in spleen, of the five sampled [3, 6]: three had no detectable virus
effect on salivary gland virus titers [3, 6]: No effect
reduction of mean lung virus titer compared to placebo-treated controls [3, 6]: 0.6 log10
Tissue Virus Titer ± S.D., Lung [3, 7]: 3.3 ± 1.9 log10 CCID50/g
Tissue Virus Titer ± S.D., Salivary Gland [3, 7]: 7.6 ± 1.2 log10 CCID50/g
Tissue Virus Titer ± S.D., Spleen [3, 7]: 1.5 ± 2.26 log10 CCID50/g
Surv/Total [3, 8]: 0/8
Mean Day to Death ± S.D. ([3]; 0.07 mg/kg/day i.p., days -2,0,+2,+4,+6,+8,+10, P<0.05 vs saline): 13.4 ± 2.6 days
Mean Day to Death ± S.D. [3, 9]: 11.3 ± 0.5 days
Surv/Total [3, 9]: 0/8
Surv/Total [3, 10]: 0/8
Mean Day to Death ± S.D. ([3]; 0.2 mg/kg/day i.p., days -2,0,+2,+4,+6,+8,+10, P<0.01 vs saline): 18.5 ± 3.7 days
Mean Day to Death ± S.D. [3, 11]: 11.6 ± 1.6 days
Surv/Total [3, 11]: 0/7
Mean Day to Death ± S.D. [3, 12]: 12.1 ± 1.3 days
Surv/Total [3, 12]: 0/7
Mean Body Weight Change ([4]; 0.07 mg/kg/day i.p. every other day): 2.7 g
Mean Body Weight Change ([4]; 0.1 mg/kg/day i.p. daily days -2 to +10): 3.1 g
Mean Body Weight Change ([4]; 0.2 mg/kg/day i.p. every other day): 2.2 g
Mean Body Weight Change ([4]; 0.7 mg/kg/day i.p. every other day): 2.4 g
Mean Body Weight Change ([4]; 2.0 mg/kg/day i.p. every other day): 1.9 g
other signs of toxicity (hunching, prostration, ruffled fur, tremors) ([4]; all doses): No other signs of toxicity
toxicity, overall assessment ([4]; all doses, Table 3): reasonably non-toxic
Surv/Total [4, 8]: 5/5
Surv/Total [4, 9]: 5/5
Surv/Total [4, 10]: 5/5
Surv/Total [4, 11]: 5/5
Surv/Total [4, 12]: 5/5
